Data from patent US20250064808A1, “METHODS FOR THE TREATMENT OF NLRP3 RELATED DISORDERS” (priority 2022, published 2025).

What was measured:
STING = STING Ser365 phosphorylation (puncta by immunofluorescence, immunoblot) in BMDM; conditions: CsA 1 μM, VBIT-4 10 μM or FEN1-IN-4 10 μM 16 hrs
Protocol: (§1) Bone marrow cells were cultured in high glucose DMEM supplemented with 10% FBS, 20% L929-cell conditioned medium, and 100 U/mL penicillin-streptomycin for 7-10 days at 37° C. with 5% CO2 (Hornung et al., 2008).
Whole cell lysates were prepared in RIPA buffer (25 mM Tris-HCl pH 7.6, 150 mM NaCl, 1% NP-40, 1% sodium deoxycholate, 0.1% SDS) containing a protease inhibitor cocktail and a phosphatase inhibitor cocktail. Protein concentrations were determined using BCA Protein Assay Kit. Equal amounts of protein were separated by SDS-PAGE and transferred onto PVDF membranes, blocked in 5% BSA in 1×TBST for 1 h and incubated with primary antibodies overnight. Secondary antibodies were added for 1 h and detection was performed using Clarity Western ECL Substrate.
BMDM were fixed in 4% paraformaldehyde (PFA), permeabilized in 0.2% Triton X-100,and blocked in 1×PBS supplemented with 3% BSA. […] Nuclei were counterstained with DAPI.

[1] = ccf-mtDNA and Fpg-sensitive Ox-mtDNA in peritoneal exudates of alum-challenged mice; format: in vivo, mouse; conditions: FEN1-IN-4 40 mg/kg, exudates 4 and 16 hrs post-challenge
BMDM [2] = assay: cytosolic mtDNA (qPCR after cellular fractionation) in BMDM; format: cell-based, mouse; conditions: LPS-primed BMDM, compound 10 μM 16 h, ATP 4 mM 1 h
Protocol: as §1
(§2) BMDM were stimulated as indicated. […] Briefly, BMDM were washed with PBS and harvested, 10% of which were saved for DNA extraction of whole cells. The remaining BMDM resuspended with pre-chilled mitochondrial extraction buffer 1 (220 mM mannitol, 70 mM sucrose, 20 mM HEPES-KOH, pH 7.5, 1 mM EDTA and 2 mg/mL bovine serum albumin) supplemented with a protease inhibitor cocktail and a phosphatase inhibitor cocktail were passed through a 25-G syringe (BD Biosciences) 20 times on ice. The homogenized cells were centrifuged at 1000×g for 15 minutes at 4° C. The supernatant was further centrifuged at 10,000×g for 10 minutes at 4° C. to pellet the mitochondria from supernatant cytosolic fraction. qPCR was performed after DNA purification with AllPrep DNA/RNA Mini Kit according to manufacturer's instructions, from both whole cell extracts and cytosolic fractions using mtDNA primers (D-loop, Cox1, non-NUMT), or after DNA purification from whole cell extracts using nuclear DNA primers (Tert, 18S, B2m). The Ct values obtained for mtDNA abundance in whole cell extracts served as normalization controls for the mtDNA values obtained from the cytosolic fractions. For the measurement of Ox-mtDNA, purified mtDNA was extracted from the cytosolic or mitochondrial fractions as indicated. The 8-OH-dG content was then quantified using 8-hydroxy 2-deoxyguanosine ELISA Kit, per manufacturer's instructions.

BMDM [3] = assay: cytosolic Ox-mtDNA (8-OH-dG ELISA of cytosolic mtDNA) in BMDM; format: cell-based, mouse; conditions: LPS-primed BMDM, compound 10 μM 16 h, ATP 4 mM 1 h
Protocol: as §1, §2

BMDM [4] = assay: 8-OH-dG content of mtDNA from mitochondria of BMDM; conditions: LPS-primed BMDM, FEN1-IN-4 pretreatment, ATP or nigericin
Protocol: as §1, §2

NLRP3 inflammasome [5] = assay: NLRP3 inflammasome activation (Casp1 p20 and mature IL-1β, IB and ELISA) in BMDM; format: cell-based, mouse; conditions: LPS-primed BMDM, compound pretreatment 16 h, challenged with NLRP3 activators
From the text: Paired antibodies (capture and detection) and standard recombinant mouse IL-1β and TNF were used to determine mouse cytokine concentrations according to manufacturer's instructions.

BMDM [6] = assay: stimulation of naive recipient BMDM by cell-free mtDNA (cytokine and ISG mRNA, qPCR); format: cell-based, mouse; conditions: recipient BMDM incubated 24 h with DNA from compound-pretreated donor BMDM; cytokine and ISG mRNAs
Protocol: RNA was extracted using AllPrep DNA/RNA Mini kit, and cDNA was synthesized using SuperScript™ VILO™ cDNA Synthesis Kit. mRNA expression was determined by QPCR in a CFX96 thermal cycler (Biorad) as described (Xian et al., 2021). Data are presented in arbitrary units and calculated by the 2^(−ΔΔCT) method. Primer sequences were obtained from the NIH qPrimerDepot (http://mouseprimerdepot.nci.nih.gov) and provided by Integrated DNA technologies.
Extracellular DNA of donor macrophages (1500,000 cells per group) was isolated using QIAamp Circulating Nucleic Acid Kit according to manufacturer's instructions and then eluted in 300 μL distilled H2O and quantified using spectrophotometric analysis at 260/280 nm with Nanodrop. DNA amounts purified among the different treatment groups vary. The DNA amount secreted from LPS-primed donor BMDM is low, approximately at 0.1 μg. The amount of DNA released by LPS-primed donor BMDM challenged with ATP is about 1.3 μg, while the amount of DNA released by LPS-primed donor BMDM challenged with nigericin is around 2 μg. The amount of DNA secreted by LPS-primed donor BMDM challenged with MSU or alum is about 0.7 μg. Applicant used 5% of the prepared DNA for qPCR measurement of extracellular mtDNA and the remaining 95% were added to the recipient BMDM for analyzing the paracrine immunostimulatory effects.

BMDM [7] = assay: extracellular (cell-free) mtDNA released by donor BMDM; format: cell-based, mouse; conditions: LPS-primed donor BMDM pretreated with compound, challenged with ATP or nigericin
Protocol: Extracellular DNA of donor macrophages (1500,000 cells per group) was isolated using QIAamp Circulating Nucleic Acid Kit according to manufacturer's instructions and then eluted in 300 μL distilled H2O and quantified using spectrophotometric analysis at 260/280 nm with Nanodrop. […] Applicant used 5% of the prepared DNA for qPCR measurement of extracellular mtDNA and the remaining 95% were added to the recipient BMDM for analyzing the paracrine immunostimulatory effects.

BMDM [8] = assay: mtROS (MitoSOX) in BMDM; conditions: LPS-primed BMDM, compound pretreatment 16 h, ATP or nigericin
Protocol: as §1
Mitochondrial membrane potential was measured using TMRM according to manufacturer's instructions. Briefly, BMDM were primed or not with LPS for 4 h, and further stimulated with ATP or nigericin for 60 minutes. Cells were incubated with 200 nM TMRM for 30 minutes at 37° C. After washing twice, fluorescence intensity was determined per manufacturer's instructions using a FilterMax F5 multimode plate reader (Molecular Devices). Mitochondrial reactive oxygen species (mtROS) were measured using MitoSOX (Invitrogen) as described (Xian et al., 2021). BMDM treated as indicated were loaded with 4 μM MitoSOX for 20 minutes. After washing with PBS twice, cells were resuspended in PBS and counted. Equal numbers of cells from different treatment groups were then plated onto 96-well plates for fluorescence reading. To quantify [Ca^2+]m by 5 μM Rhod-2 or intracellular Ca^2+ intensity by 1 μM Fluo-4, BMDM treated as indicated were loaded with the respective dyes according to manufacturer's instructions for 30 minutes. After washing twice, fluorescence intensity was determined using a FilterMax F5 multimode plate reader (Molecular Devices). To analyze mPTP opening by calcein-quenching assay, BMDM treated as indicated were loaded with calcein at 2 μM and CoCl2 at 160 μM for 30 minutes at 37° C. according to manufacturer's instructions. After washing twice, fluorescence intensity was determined per with a FilterMax F5 multimode plate reader (Molecular Devices).

BMDM [9] = assay: total mtDNA (LPS-stimulated mtDNA synthesis, qPCR) in BMDM; format: cell-based, mouse; conditions: compound 10 μM 16 h, before or after LPS priming
From the text: Nuclear DNA encoding telomerase reverse transcriptase (Tert), 18S ribosomal RNA and β2 microglobulin (B2m) was used for normalization.

BMDM [10] = assay: mtDNA fragmentation (agarose gel of cytosolic and mitochondrial DNA) in BMDM; format: cell-based, mouse; conditions: FEN1-IN-4 10 μM 16 h, LPS-primed, ATP
From the text: To analyze DNA fragmentation and extrusion in mitochondrial and cytosolic fractions, BMDM (15000,000 cells per group) were stimulated as indicated and fractionalized as above. […] Cytosolic, mitochondrial or nuclear DNAs were purified using AllPrep DNA/RNA Mini Kit according to manufacturer's instructions and analyzed on 1% agarose gels stained with ethidium bromide.

NLRP3 inflammasome [11] = assay: alum-induced peritonitis in mice; format: in vivo, mouse
Protocol: 8-12-week-old male C57BL/6 mice and WT or mt-Ogg1Tg mice were allocated randomly and i.p. injected with alum (1 mg dissolved in 0.2 mL sterile PBS) or PBS. Peritoneal lavage was collected 4 h post-injection to measure cytokine amounts by ELISA. […] Neutrophils (CD11b^+Ly6G^+F4/80^−) and monocytes (CD11b^+Ly6C^+Ly6G^−) present in peritoneal lavage fluid were quantified by flow cytometry. For blocking Fc-mediated interactions, mouse cells were pre-incubated with 0.5-1 μg of purified anti-mouse CD16/CD32 per 100 μL. Isolated cells were stained with labelled antibodies in PBS with 2% FCS and 2 mM EDTA or cell staining buffer (Biolegend). Dead cells were excluded based on staining with propidium iodide (PI). Absolute numbers of immune cell subtypes in the peritoneum were calculated by multiplying total peritoneal cell numbers by percentages of immune cell subtypes amongst total cells. Cells were analyzed on a Beckman Coulter Cyan ADP flow cytometer. Paired antibodies (capture and detection) and standard recombinant mouse IL-1β and TNF were used to determine mouse cytokine concentrations according to manufacturer's instructions.

[12] = FEN1-IN-4 40 mg/kg 16 h prior to i.p. alum 1 mg, exudate 4 h later
[13] = FEN1-IN-4 40 mg/kg 16 h prior to i.p. alum, 16 h

SMILES: O=c1c2ccccc2n(CC2CC2)c(=O)n1O [FEN1-IN-4]
- formation of Ser^365 phosphorylated STING puncta (STING; LPS-primed BMDM, ATP or nigericin): diminished
- ATP-induced STING Ser^365 phosphorylation (immunoblot) in Nlrp3−/− BMDM (STING; LPS-primed Nlrp3−/− BMDM, ATP): completely blocked
- ccf-mtDNA secretion into peritoneal exudates [1]: inhibited
- Ox-mtDNA secretion into peritoneal exudates ([1]; Fpg-sensitive qPCR): inhibited
- cytosolic mtDNA release (BMDM [2]): abrogated
- cytosolic Ox-mtDNA (release) (BMDM [3]): abrogated
- Ox-mtDNA generation (8-OH-dG in mitochondrial mtDNA) (BMDM [4]): no effect
- NLRP3 inflammasome activation (Casp1 activation and mature IL-1β secretion) (NLRP3 inflammasome [5]): dose-dependent inhibition
- immunostimulatory activity of DNA secreted by treated donor BMDM (BMDM [6]): inhibited
- cell-free mtDNA release (BMDM [7]): inhibited
- mtROS production (BMDM [8]): no effect
- LPS-stimulated mtDNA synthesis (total mtDNA) (BMDM [9]): did not affect
- mtDNA fragmentation (BMDM [10]): abrogated
- alum-induced NLRP3 inflammasome-dependent IL-1β production in vivo (peritoneal IL-1β) (NLRP3 inflammasome [11]; [12]): inhibited
- peritoneal TNF secretion in vivo (NLRP3 inflammasome [11]; [12]): without an effect
- monocyte infiltration (peritoneal) (NLRP3 inflammasome [11]; [13]): reduced
- neutrophil infiltration (peritoneal) (NLRP3 inflammasome [11]; [13]): reduced
